Experiment [1] has as its system Salmonella typhimurium S-9. Nature of the experiment: In vivo efficacy against systemic infection with Salmonella typhimurium in mice. Details: species or system mice (ddY-S). The settings on record: for ED50: Salmonella enterica, TYPHIMURIUM, 336 h, twice a day for 4 days, 14 days observation; for number of the survived/the total number: 14 days. The protocol:
(§1) In the Tables II to IV, the ED50 and ID50 values were calculated in accordance with the Behrens-Kaerber method [Arch. Exp. Path. Pharm., 162, 480 (1931)]. The compound numbers are those described in the Examples and compounds PA and AT-616 are as follows:
The numerical figures in the table show the number of the survived/the
(§2) total number. 0/8 means that all of 8 mice died. 8/8 means that all 8 mic
Experimental conditions.
Organism: Salmonella typhimurium S-9
(§3) Mice: male mice (ddY-S) weighing 20 g approximately
Infection: Intraperitoneal infection with 50 to 100 LD50 of a
bacterial suspension in nutrient broth (about 10^5 cells/mouse)
Medication: twice a day for 4 days from the day of infection.
Drug: an alkaline solution for parenteral administration and suspension i
0.2% CMC for oral administration
i.e.: intraperitoneal administration
p.o.: oral administration

Experiment [2] has as its system Mycobacterium tuberculosis H37 Rv. Description: Antituberculous activity in vitro, MIC by serial dilution. Format: cell-based. The settings on record: H37RV, 504 h, Kirchner medium with 0.2% bovine albumin, pH 7.0, 37°C, 3 weeks. On the procedure: (§4) The minimum inhibitory concentration (MIC:μg/ml) was determined by the
(§5) well known serial dilution method.
(§6) Experimental conditions:?
(§7) Medium: Kirchner medium containing 0.2% bovine albumin, pH 7.0 (3 ml/tube
(§8) Inoculum: 1 drop of 1:10^2 dilution of a culture in Modified Kirchner
(§9) medium for 2 weeks (OD=0.3) per tube
(§10) Incubation temp. and time: 37°C for 3 weeks

Experiment [3] concerns Mycobacterium tuberculosis Kurono. Described as above. The format is cell-based. The settings on record: 504 h, Kirchner medium with 0.2% bovine albumin, pH 7.0, 37°C, 3 weeks. On the procedure: as §4, §5, §6, §7, §8, §9, §10
Experiment [4] deals with Staphylococcus aureus Terajima. Description: In vitro antibacterial activity, MIC by serial dilution. Format: cell-based. The settings on record: nutrient broth pH 7.0, 37°C, 48 hours. On the procedure: (§11) The minimum inhibitory concentration (MIC) was determined by the well
(§12) known serial dilution method.
as §6
(§13) Medium: nutrient broth, pH 7.0 (5 ml/tube)
(§14) Inoculum: 1 drop of 1 : 10^5 dilution of an overnight broth culture
(§15) Incubation temperature and time: 37°C for 48 hours

The subject of experiment [5] is Pseudomonas aeruginosa Tsuchijima. The experiment is described as above. The format is cell-based. The note with it: nutrient broth pH 7.0, 37°C, 48 hours. The protocol:
as §11, §12, §6, §13, §14, §15

A further experiment has as its system Escherichia coli K-12. The description is as above. Format: cell-based. The note with it: K12; Escherichia coli K-12; nutrient broth pH 7.0, 37°C, 48 hours; read-out: MIC. On the procedure:
as §11, §12, §6, §13, §14, §15

For experiment [6], the system named is Pseudomonas aeruginosa No. 12. Description: In vivo efficacy against systemic infection with Pseudomonas aeruginosa in mice. Details: species or system mice (ddY-S). The settings on record: NO.12, 168 h, 7 days; for ED50: twice, about 5 minutes and 6 hours after infection. The protocol:
as §1, §2, §3

The structures appear in SMILES notation. Converted amounts (≈) assume the structure as drawn. A value given as a limit tells only on which side of the number the result lay.

Regarding `CCn1cc(C(=O)O)c(=O)c2cnc(N3CCCC3)nc21` [Compound PA, reference compound], the ED50 in experiment [1] (ip) is 43.5 mg/kg; in experiment [1] (po), 46.7 mg/kg; in experiment [6] (ip), over 100 mg/kg; in experiment [6] (po), over 200 mg/kg. The “number of the survived/the total number” value is 0/10 in experiment [1] (ip, 12.5 mg/kg); 3/10 in experiment [1] (ip, 25 mg/kg); 5/10 in experiment [1] (ip, 50 mg/kg); 9/10 in experiment [1] (ip, 100 mg/kg); 0/10 in experiment [1] (po, 12.5 mg/kg); 3/10 in experiment [1] (po, 25 mg/kg). Also, the “number of the survived/the total number” value was 4/10 in experiment [1] (po, 50 mg/kg) and 10/10 in experiment [1] (po, 100 mg/kg). Further, the MIC in experiment [2] was 100 µg/mL (≈ 347 µM); in experiment [3] it was 100 µg/mL (≈ 347 µM); in experiment [4], 10 µg/mL (≈ 34.7 µM); in experiment [5], 100 µg/mL (≈ 347 µM); with Escherichia coli K-12 it was 1 µg/mL (≈ 3.47 µM). Besides, the responders at 100 mg/kg in experiment [6] (ip, 100 mg/kg, read-out: number of the survival/the total number (converted)) was 0%. For the same compound, the responders at 200 mg/kg in experiment [6] (po, 200 mg/kg, read-out: number of the survival/the total number (converted)) is 0%.

For orientation: ED50 means the dose that gives a 50% effect, or the effect in half of the subjects. A lower ED50 goes with greater potency. Usually MIC stands for the least concentration at which growth counts as inhibited.
